US10308643B2, “Heterocyclic compound” (Takeda Pharmaceutical Company Limited, priority 2015, dated 2019)

Assays:
Type in all cases: biochemical
HDAC1 enzyme = target: T1, HDAC1 enzyme (Homo sapiens, UniProt Q13547); test: HDAC1/6 Enzyme Inhibitory Assay (HDAC-Glo I/II Assay kit), HDAC1; settings: 1 μM test compound, wells without enzyme = 100% inhibition; for inhibition at 1 µM: read-out: HDAC1 inhibitory rate (%) (1 μM)
T1 construct: transducing full length HDAC1 and HDAC6 genes into Sf-9 insect cells; GST; purchased SignalChem; host or cells: Sf-9 insect cells
Summary of the method: (§1)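 Luminescent HDAC-Glo I/II read-out was taken 20 min after adding substrate-developer, at room temperature. Before this, compound and enzyme were held together for 60 min in 24 mM Tris-HCl pH 7.5 with 0.6 mM glutathione and 0.01% Tween-20. The enzyme was full-length HDAC1 or HDAC6 from Sf-9 cells, GST-purified. Wells without enzyme defined 100% inhibition.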

HDAC9 enzyme = target: T2, HDAC9 enzyme (Homo sapiens, UniProt Q9UKV0); test: HDAC9 Enzyme Inhibitory Assay (HDAC-Glo class IIa); settings: 1 μM test compound, wells without enzyme = 100% inhibition; for inhibition at 1 µM: read-out: HDAC9 inhibitory rate (%) (1 μM)
T2 construct: transducing full length HDAC9 gene into Sf-9 insect cells; made in house; host or cells: Sf-9 insect cells
Summary of the method: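 Full-length human HDAC9 from Sf-9 cells, Ni-NTA purified, preincubated with compound for 60 min at room temperature in Tris-HCl pH 7.5 buffer (MgCl2, KCl, NaCl, glutathione, Tween-20). HDAC-Glo class IIa substrate-developer added; luminescence read after 20 min, with no-enzyme wells defining 100% inhibition.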

HDAC6 enzyme = target: T3, HDAC6 enzyme (Homo sapiens, UniProt Q9UBN7); test: HDAC1/6 Enzyme Inhibitory Assay (HDAC-Glo I/II Assay kit), HDAC6; settings: 1 μM test compound, wells without enzyme = 100% inhibition; for inhibition at 1 µM: read-out: HDAC6 inhibitory rate (%) (1 μM)
T3 construct: transducing full length HDAC1 and HDAC6 genes into Sf-9 insect cells; GST; purchased SignalChem; host or cells: Sf-9 insect cells
T3 sequence (Q9UBN7 1-1215): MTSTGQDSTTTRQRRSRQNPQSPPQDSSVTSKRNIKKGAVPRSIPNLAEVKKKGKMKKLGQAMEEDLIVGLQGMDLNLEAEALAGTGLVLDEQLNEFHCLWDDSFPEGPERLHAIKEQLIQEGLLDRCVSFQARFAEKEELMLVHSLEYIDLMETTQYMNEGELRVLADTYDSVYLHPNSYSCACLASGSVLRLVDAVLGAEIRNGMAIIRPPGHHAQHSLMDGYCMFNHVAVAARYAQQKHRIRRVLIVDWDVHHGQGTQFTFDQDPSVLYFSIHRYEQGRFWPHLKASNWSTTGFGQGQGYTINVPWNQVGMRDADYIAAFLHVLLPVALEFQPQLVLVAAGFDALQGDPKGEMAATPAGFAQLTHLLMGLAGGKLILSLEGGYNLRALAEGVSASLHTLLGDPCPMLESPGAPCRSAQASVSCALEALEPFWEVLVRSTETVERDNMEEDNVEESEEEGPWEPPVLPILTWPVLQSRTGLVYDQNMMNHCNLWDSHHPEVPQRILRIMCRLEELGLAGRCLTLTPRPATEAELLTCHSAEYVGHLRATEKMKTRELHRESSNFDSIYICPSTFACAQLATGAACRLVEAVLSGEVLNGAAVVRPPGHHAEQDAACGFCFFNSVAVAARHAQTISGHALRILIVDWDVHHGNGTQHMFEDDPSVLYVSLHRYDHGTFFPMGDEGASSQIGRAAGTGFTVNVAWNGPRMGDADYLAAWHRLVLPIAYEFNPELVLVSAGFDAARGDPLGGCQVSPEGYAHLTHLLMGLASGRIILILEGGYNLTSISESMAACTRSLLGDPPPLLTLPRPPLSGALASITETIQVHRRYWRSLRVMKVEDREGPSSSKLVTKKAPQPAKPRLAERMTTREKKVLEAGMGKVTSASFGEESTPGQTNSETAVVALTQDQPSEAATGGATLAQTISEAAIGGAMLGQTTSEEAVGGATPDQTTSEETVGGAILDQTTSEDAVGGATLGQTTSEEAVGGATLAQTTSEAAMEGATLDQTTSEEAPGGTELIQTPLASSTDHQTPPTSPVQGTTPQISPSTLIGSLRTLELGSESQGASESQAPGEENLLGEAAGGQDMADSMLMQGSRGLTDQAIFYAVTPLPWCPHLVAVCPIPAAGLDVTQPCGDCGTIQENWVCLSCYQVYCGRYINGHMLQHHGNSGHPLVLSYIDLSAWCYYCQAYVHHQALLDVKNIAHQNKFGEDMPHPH
Summary of the method: as §1

T1 sequence (Q13547 whole entry): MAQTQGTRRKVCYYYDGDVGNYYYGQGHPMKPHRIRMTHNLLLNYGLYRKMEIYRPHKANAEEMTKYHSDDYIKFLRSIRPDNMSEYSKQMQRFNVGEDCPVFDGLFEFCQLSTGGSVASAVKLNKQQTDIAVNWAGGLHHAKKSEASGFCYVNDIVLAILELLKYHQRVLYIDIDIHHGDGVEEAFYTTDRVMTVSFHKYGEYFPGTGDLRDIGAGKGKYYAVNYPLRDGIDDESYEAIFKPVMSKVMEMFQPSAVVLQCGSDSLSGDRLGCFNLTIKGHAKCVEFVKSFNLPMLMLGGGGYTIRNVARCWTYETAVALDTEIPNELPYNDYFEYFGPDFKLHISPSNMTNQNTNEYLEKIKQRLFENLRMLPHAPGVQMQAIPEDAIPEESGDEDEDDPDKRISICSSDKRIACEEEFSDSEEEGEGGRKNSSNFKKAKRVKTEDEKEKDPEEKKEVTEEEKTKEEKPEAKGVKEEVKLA
T2 sequence (Q9UKV0 whole entry, species assumed): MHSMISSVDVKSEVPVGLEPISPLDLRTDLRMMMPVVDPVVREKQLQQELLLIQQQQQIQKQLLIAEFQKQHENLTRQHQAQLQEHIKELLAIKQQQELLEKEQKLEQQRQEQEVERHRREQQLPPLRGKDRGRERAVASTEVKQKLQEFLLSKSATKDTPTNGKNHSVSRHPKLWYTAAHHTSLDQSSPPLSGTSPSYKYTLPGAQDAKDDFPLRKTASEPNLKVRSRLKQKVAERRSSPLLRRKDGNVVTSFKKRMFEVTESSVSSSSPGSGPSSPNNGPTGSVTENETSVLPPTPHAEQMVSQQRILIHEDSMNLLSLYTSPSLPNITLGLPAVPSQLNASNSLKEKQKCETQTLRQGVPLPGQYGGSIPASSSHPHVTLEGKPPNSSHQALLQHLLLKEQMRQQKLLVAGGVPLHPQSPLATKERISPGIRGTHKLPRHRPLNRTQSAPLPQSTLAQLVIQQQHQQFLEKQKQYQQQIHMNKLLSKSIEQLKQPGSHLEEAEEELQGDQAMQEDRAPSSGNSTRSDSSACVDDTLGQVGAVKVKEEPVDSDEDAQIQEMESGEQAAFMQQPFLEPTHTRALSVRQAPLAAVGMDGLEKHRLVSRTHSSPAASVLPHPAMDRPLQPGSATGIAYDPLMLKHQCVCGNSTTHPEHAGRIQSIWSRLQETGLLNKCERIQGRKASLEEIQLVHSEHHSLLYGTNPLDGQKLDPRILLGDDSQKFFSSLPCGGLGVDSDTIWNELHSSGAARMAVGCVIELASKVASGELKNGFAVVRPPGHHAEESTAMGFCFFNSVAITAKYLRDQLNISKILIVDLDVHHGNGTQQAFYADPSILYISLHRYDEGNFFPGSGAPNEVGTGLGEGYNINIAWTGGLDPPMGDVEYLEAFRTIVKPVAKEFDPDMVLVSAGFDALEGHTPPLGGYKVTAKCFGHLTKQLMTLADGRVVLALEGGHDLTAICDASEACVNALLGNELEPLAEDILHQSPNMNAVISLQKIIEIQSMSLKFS

Row | inhibition at 1 µM (HDAC1 enzyme) [%] | inhibition at 1 µM (HDAC9 enzyme) [%] | inhibition at 1 µM (HDAC6 enzyme) [%] | HDAC1 inhibitory rate (%) (1 μM) (HDAC1 enzyme; 1 µM) | HDAC9 inhibitory rate (%) (1 μM) (HDAC9 enzyme; 1 µM) | HDAC6 inhibitory rate (%) (1 μM) (HDAC6 enzyme) | SMILES
1 | 5 | 42 | 100 |  |  |  | O=C1c2cc(-c3noc(C(F)(F)F)n3)ccc2CN1[C@@H]1CCCC[C@H]1NC(=O)C1(O)CCC1 [Example 173, 1-hydroxy-N-((1R,2R)-2-(1-oxo-6-(5-(trifluoromethyl)-1,2,4-oxadiazol-3-yl)-1,3-dihydro-2H-isoindol-2-yl)cyclohexyl) cyclobutanecarboxamide]
2 | 15 | 41 | 100 |  |  |  | CC1(C(=O)N[C@@H]2CCCC[C@H]2N2Cc3ccc(-c4noc(C(F)(F)F)n4)cc3C2=O)COC1 [Example 42, 3-methyl-N-((1R,2R)-2-(1-oxo-6-(5-(trifluoromethyl)-1,2,4-oxadiazol-3-yl)-1,3-dihydro-2H-isoindol-2-yl)cyclohexyl)oxetane-3-carboxamide]
3 | -5 | 58 | 40 |  |  |  | CC(C)(C)OC(=O)N1CC[C@@H](N2Cc3cc(-c4noc(C(F)(F)F)n4)ccc3C2=O)[C@H](c2ccccc2)C1 (relative stereo) [Example 135, tert-butyl-trans-4-(1-oxo-5-(5-(trifluoromethyl)-1,2,4-oxadiazol-3-yl)-1,3-dihydro-2H-isoindol-2-yl)-3-phenylpiperidine-1-carboxylate]
4 | 16 | 42 | 35 |  |  |  | CC1(C(=O)N[C@@H]2CCC[C@H]2N2Cc3ccc(-c4noc(C(F)(F)F)n4)cc3C2=O)COC1 [Example 151, 3-methyl-N-((1R,2R)-2-(1-oxo-6-(5-(trifluoromethyl)-1,2,4-oxadiazol-3-yl)-1,3-dihydro-2H-isoindol-2-yl)cyclopentyl)oxetane-3-carboxamide]
5 | 1 | 45 | 99 |  |  |  | CC1(C(=O)N[C@@H]2CCC(F)(F)C[C@H]2N2Cc3ccc(-c4noc(C(F)(F)F)n4)cc3C2=O)COC1 [Example 87, N-((1R,2R)-4,4-difluoro-2-(1-oxo-6-(5-(trifluoromethyl)-1,2,4-oxadiazol-3-yl)-1,3-dihydro-2H-isoindol-2-yl)cyclohexyl)-3-methyloxetane-3-carboxamide]
6 | 11 | 57 | 99 |  |  |  | CC1(C)CC1C(=O)N[C@@H]1CCCC[C@H]1N1Cc2ccc(-c3noc(C(F)(F)F)n3)cc2C1=O (stereo partly drawn) [Example 107, 2,2-dimethyl-N-((1R,2R)-2-(1-oxo-6-(5-(trifluoromethyl)-1,2,4-oxadiazol-3-yl)-1,3-dihydro-2H-isoindol-2-yl)cyclohexyl) cyclopropanecarboxamide]
7 | 34 | 86 | 90 |  |  |  | O=C(N[C@H]1COCC[C@@H]1N1Cc2ccc(-c3noc(C(F)(F)F)n3)cc2C1=O)[C@H]1CC1(F)F [Example 221, (1R)-2,2-difluoro-N-((3R,4S)-4-(1-oxo-6-(5-(trifluoromethyl)-1,2,4-oxadiazol-3-yl)-1,3-dihydro-2H-isoindol-2-yl)tetrahydro-2H-pyran-3-yl)cyclopropanecarboxamide]
8 | 25 | 94 | 89 |  |  |  | CC(=O)N1CC[C@@H](N2Cc3cc(-c4noc(C(F)(F)F)n4)ccc3C2=O)[C@H](c2ccccc2)C1 (relative stereo) [Example 137, trans-2-(1-acetyl-3-phenylpiperidin-4-yl)-5-(5-(trifluoromethyl)-1,2,4-oxadiazol-3-yl)isoindolin-1-one]
9 | 70 | 95 | 100 |  |  |  | O=C(C1CC1)N1C[C@@H](N2Cc3ccc(-c4noc(C(F)(F)F)n4)cc3C2=O)[C@H](c2ccccc2)C1 (relative stereo) [Example 11, trans-2-(1-(cyclopropylcarbonyl)-4-phenylpyrrolidin-3-yl)-6-(5-(trifluoromethyl)-1,2,4-oxadiazol-3-yl)isoindolin-1-one]
10 | 10 | 61 | 99 |  |  |  | O=C(N[C@@H]1COCC[C@H]1N1Cc2ccc(-c3noc(C(F)(F)F)n3)cc2C1=O)C1CC1 [Example 82, N-((3S,4R)-4-(1-oxo-6-(5-(trifluoromethyl)-1,2,4-oxadiazol-3-yl)-1,3-dihydro-2H-isoindol-2-yl)tetrahydro-2H-pyran-3-yl)cyclopropanecarboxamide]
11 | -3 | 37 | 79 |  |  |  | CN1CC(C(=O)N[C@@H]2CCCC[C@H]2N2Cc3ccc(-c4noc(C(F)(F)F)n4)cc3C2=O)CC1=O (stereo partly drawn) [Example 120, 1-methyl-5-oxo-N-((1R,2R)-2-(1-oxo-6-(5-(trifluoromethyl)-1,2,4-oxadiazol-3-yl)-1,3-dihydro-2H-isoindol-2-yl)cyclohexyl)pyrrolidine-3-carboxamide]
12 | 3 | 32 | 96 |  |  |  | CN1CCCCC1C(=O)N[C@@H]1CCCC[C@H]1N1Cc2ccc(-c3noc(C(F)(F)F)n3)cc2C1=O (stereo partly drawn) [Example 124, 1-methyl-N-((1R,2R)-2-(1-oxo-6-(5-(trifluoromethyl)-1,2,4-oxadiazol-3-yl)-1,3-dihydro-2H-isoindol-2-yl)cyclohexyl)piperidine-2-carboxamide]
13 |  |  |  | 78 | 95 | 99 | O=C1c2cc(-c3noc(C(F)(F)F)n3)ccc2CN1[C@@H]1CCOC[C@H]1c1ccccc1 (relative stereo) [Example 5, trans-2-(3-phenyltetrahydro-2H-pyran-4-yl)-6-(5-(trifluoromethyl)-1,2,4-oxadiazol-3-yl)isoindolin-1-one]
14 | 11 | 84 | 90 |  |  |  | O=C1c2cc(-c3noc(C(F)(F)F)n3)ccc2CN1[C@@H]1COCC[C@H]1O [Example 179, 1,5-anhydro-2,4-dideoxy-2-(1-oxo-6-(5-(trifluoromethyl)-1,2,4-oxadiazol-3-yl)-1,3-dihydro-2H-isoindol-2-yl)-D-threo-pentitol]
15 | 99 | 99 | 98 |  |  |  | O=C1c2cc(-c3noc(C(F)(F)F)n3)ccc2CN1C1CCNC[C@@H]1c1cc(Cl)cc(Cl)c1 (stereo in doubt) [Example 58, 2-(trans-3-(3,5-dichlorophenyl)piperidin-4-yl)-6-(5-(trifluoromethyl)-1,2,4-oxadiazol-3-yl)isoindolin-1-one]
16 | 23 | 86 | 91 |  |  |  | CC(=O)N1CCCC(N2Cc3ncc(-c4noc(C(F)(F)F)n4)cc3C2=O)C1 (stereo not drawn) [Example 39, 6-(1-acetylpiperidin-3-yl)-3-(5-(trifluoromethyl)-1,2,4-oxadiazol-3-yl)-6,7-dihydro-5H-pyrrolo[3,4-b]pyridin-5-one]
17 | 35 | 90 | 90 |  |  |  | O=C(Cc1ccc(F)cc1)N1CCC(N2Cc3ncc(-c4noc(C(F)(F)F)n4)cc3C2=O)CC1 [Example 68, 6-(1-((4-fluorophenyl)acetyl)piperidin-4-yl)-3-(5-(trifluoromethyl)-1,2,4-oxadiazol-3-yl)-6,7-dihydro-5H-pyrrolo[3,4-b]pyridin-5-one]
